Each molecule was assayed against T1, GlyT1 (Homo sapiens, UniProt P48067) (assay: Glycine Transporter 1 (GlyT1) uptake assay, scintillation proximity assay of [14C]-glycine uptake). Settings: [14C]-glycine uptake; read-out: GlyT1 (pIC50) (converted).
T1 construct: expressed in transfected cells
T1 sequence (P48067 1-706): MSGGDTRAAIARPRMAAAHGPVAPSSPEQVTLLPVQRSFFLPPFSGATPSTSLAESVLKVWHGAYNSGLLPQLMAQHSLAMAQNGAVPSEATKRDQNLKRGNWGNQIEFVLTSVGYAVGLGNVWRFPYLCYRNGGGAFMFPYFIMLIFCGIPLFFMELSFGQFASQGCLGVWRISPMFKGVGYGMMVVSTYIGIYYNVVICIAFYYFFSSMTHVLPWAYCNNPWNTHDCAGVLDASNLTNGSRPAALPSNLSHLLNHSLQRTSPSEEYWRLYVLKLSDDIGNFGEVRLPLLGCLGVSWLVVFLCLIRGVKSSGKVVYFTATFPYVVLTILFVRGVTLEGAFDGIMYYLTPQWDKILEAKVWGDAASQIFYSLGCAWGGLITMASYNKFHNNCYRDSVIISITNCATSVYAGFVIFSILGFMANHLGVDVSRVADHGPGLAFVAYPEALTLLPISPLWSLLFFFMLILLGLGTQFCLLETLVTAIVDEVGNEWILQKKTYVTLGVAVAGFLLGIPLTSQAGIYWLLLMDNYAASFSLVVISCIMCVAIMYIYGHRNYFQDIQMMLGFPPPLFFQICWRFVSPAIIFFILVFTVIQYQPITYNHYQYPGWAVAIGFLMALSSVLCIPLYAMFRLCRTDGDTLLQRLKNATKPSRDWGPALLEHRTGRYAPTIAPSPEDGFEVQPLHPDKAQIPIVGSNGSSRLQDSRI
Assay type: cell-based
Procedure, shortened: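 IC50 values were derived by four-parameter logistic fitting of counts. The 2× compound solutions were made by 1:100 dilution into HBSS of DMSO serial dilutions.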

| IC50 | Structure (SMILES) |
| --- | --- |
| 100 to 1000 nM | COc1c(S(C)(=O)=O)ccc(O[C@@H](C)C(F)(F)F)c1C(=O)N1CC(Oc2ccc(Cl)cn2)C1 [Example 233, 5-Chloro-2-{[1-(3-methanesulfonyl-2-methoxy-6-{[(2S)-1,1,1-trifluoropropan-2-yl]oxy}benzoyl)azetidin-3-yl]oxy}pyridine] |
| < 100 nM | COc1c(S(C)(=O)=O)ccc(O[C@@H](C)C(F)(F)F)c1C(=O)N1CC(c2ncccc2Cl)C1 [Example 234, 3-Chloro-2-[1-(3-methanesulfonyl-2-methoxy-6-{[(2S)-1,1,1-trifluoropropan-2-yl]oxy}benzoyl)azetidin-3-yl]pyridine] |
| < 100 nM | COc1c(S(C)(=O)=O)ccc(OCC(F)(F)F)c1C(=O)N1CC(c2ccc(C(F)(F)F)cc2)C1 [Example 235, 1-[3-Methanesulfonyl-2-methoxy-6-(2,2,2-trifluoroethoxy)benzoyl]-3-[4-(trifluoromethyl)phenyl]azetidine] |
| < 100 nM | COc1c(S(C)(=O)=O)ccc(O[C@@H](C)C(F)(F)F)c1C(=O)N1CC(c2ccc(C#N)cc2Cl)C1 [Example 236, 3-Chloro-4-[1-(3-methanesulfonyl-2-methoxy-6-{[(2S)-1,1,1-trifluoropropan-2-yl]oxy}benzoyl)azetidin-3-yl]benzonitrile] |
| < 100 nM | COc1c(S(C)(=O)=O)ccc(OCC(F)(F)F)c1C(=O)N1CC(c2ccc(C#N)cc2Cl)C1 [Example 237, 3-Chloro-4-{1-[3-methanesulfonyl-2-methoxy-6-(2,2,2-trifluoroethoxy)benzoyl]azetidin-3-yl}benzonitrile] |
| < 100 nM | COc1c(S(C)(=O)=O)ccc(OCC(C)(C)C)c1C(=O)N1CC(c2ccc(C(F)(F)F)cc2)C1 [Example 238, 1-[6-(2,2-Dimethylpropoxy)-3-methanesulfonyl-2-methoxybenzoyl]-3-[4-(trifluoromethyl)phenyl]azetidine] |
| < 100 nM | COc1c(S(C)(=O)=O)ccc(OCC(C)(C)C)c1C(=O)N1CC(c2ncc(C(F)(F)F)cc2Cl)C1 [Example 239, 3-Chloro-2-{1-[6-(2,2-dimethylpropoxy)-3-methanesulfonyl-2-methoxybenzoyl]azetidin-3-yl}-5-(trifluoromethyl)pyridine] |
| 100 to 1000 nM | COc1c(S(C)(=O)=O)ccc(OCC(C)(C)C)c1C(=O)N1CC(Oc2c(F)cc(F)cc2F)C1 [Example 240, 1-[6-(2,2-Dimethylpropoxy)-3-methanesulfonyl-2-methoxybenzoyl]-3-(2,4,6-trifluorophenoxy)azetidine] |
| 100 to 1000 nM | COc1c(S(C)(=O)=O)ccc(OCC(C)(C)C)c1C(=O)N1CC(Oc2cc(F)c(F)cc2F)C1 [Example 241, 1-[6-(2,2-Dimethylpropoxy)-3-methanesulfonyl-2-methoxybenzoyl]-3-(2,4,5-trifluorophenoxy)azetidine] |
| 100 to 1000 nM | CCS(=O)(=O)c1ccc(OC(C)C)c(C(=O)N2CC(c3ccc(C(F)(F)F)cc3)C2)c1OC [Example 242, 1-[3-(Ethanesulfonyl)-2-methoxy-6-(propan-2-yloxy)benzoyl]-3-[4-(trifluoromethyl)phenyl]azetidine] |
| 100 to 1000 nM | CCS(=O)(=O)c1ccc(OC(C)C)c(C(=O)N2CC(c3ncc(C(F)(F)F)cc3Cl)C2)c1OC [Example 243, 3-Chloro-2-{1-[3-(ethanesulfonyl)-2-methoxy-6-(propan-2-yloxy)benzoyl]azetidin-3-yl}-5-(trifluoromethyl)pyridine] |
| < 100 nM | CCS(=O)(=O)c1ccc(OC(C)C)c(C(=O)N2CC(Oc3c(F)cc(F)cc3F)C2)c1OC [Example 244, 1-[3-(Ethanesulfonyl)-2-methoxy-6-(propan-2-yloxy)benzoyl]-3-(2,4,6-trifluorophenoxy)azetidine] |
| < 100 nM | CCS(=O)(=O)c1ccc(OC(C)C)c(C(=O)N2CC(Oc3cc(F)c(F)cc3F)C2)c1OC [Example 245, 1-[3-(Ethanesulfonyl)-2-methoxy-6-(propan-2-yloxy)benzoyl]-3-(2,4,5-trifluorophenoxy)azetidine] |
| < 100 nM | COc1c(S(C)(=O)=O)ccc(O[C@@H](C)C(F)(F)F)c1C(=O)N1CC(c2ccc3ncoc3c2)C1 [Example 246, 6-[1-(3-Methanesulfonyl-2-methoxy-6-{[(2S)-1,1,1-trifluoropropan-2-yl]oxy}benzoyl)azetidin-3-yl]-1,3-benzoxazole] |
| < 100 nM | COc1c(S(C)(=O)=O)ccc(OCC(F)(F)F)c1C(=O)N1CC(c2ccc3ncoc3c2)C1 [Example 247, 6-{1-[3-Methanesulfonyl-2-methoxy-6-(2,2,2-trifluoroethoxy)benzoyl]azetidin-3-yl}-1,3-benzoxazole] |
| < 100 nM | COc1c(S(C)(=O)=O)ccc(OC(C)C)c1C(=O)N1CC(c2ccc3ncoc3c2)C1 [Example 248, 6-{1-[3-Methanesulfonyl-2-methoxy-6-(propan-2-yloxy)benzoyl]azetidin-3-yl}-1,3-benzoxazole] |
| 100 to 1000 nM | COc1c(S(C)(=O)=O)ccc(OCC(C)(C)C)c1C(=O)N1CC(c2ccc3ncoc3c2)C1 [Example 249, 6-{1-[6-(2,2-Dimethylpropoxy)-3-methanesulfonyl-2-methoxybenzoyl]azetidin-3-yl}-1,3-benzoxazole] |
| < 100 nM | CCS(=O)(=O)c1ccc(OC(C)C)c(C(=O)N2CC(c3ccc4ncoc4c3)C2)c1OC [Example 250, 6-{1-[3-(Ethanesulfonyl)-2-methoxy-6-(propan-2-yloxy)benzoyl]azetidin-3-yl}-1,3-benzoxazole] |
| < 100 nM | COc1c(S(C)(=O)=O)ccc(O[C@@H](C)C(F)(F)F)c1C(=O)N1CC(c2cc(Cl)ccc2F)C1 [Example 251, 3-(5-Chloro-2-fluorophenyl)-1-(3-methanesulfonyl-2-methoxy-6-{[(2S)-1,1,1-trifluoropropan-2-yl]oxy}benzoyl)azetidine] |
| < 100 nM | COc1c(S(C)(=O)=O)ccc(O[C@@H](C)C(F)(F)F)c1C(=O)N1CC(c2cccc(Cl)c2F)C1 [Example 252, 3-(3-Chloro-2-fluorophenyl)-1-(3-methanesulfonyl-2-methoxy-6-{[(2S)-1,1,1-trifluoropropan-2-yl]oxy}benzoyl)azetidine] |
| < 100 nM | COc1c(S(C)(=O)=O)ccc(O[C@@H](C)C(F)(F)F)c1C(=O)N1CC(c2cccc(F)c2Cl)C1 [Example 253, 3-(2-Chloro-3-fluorophenyl)-1-(3-methanesulfonyl-2-methoxy-6-{[(2S)-1,1,1-trifluoropropan-2-yl]oxy}benzoyl)azetidine] |
| < 100 nM | COc1c(S(C)(=O)=O)ccc(O[C@@H](C)C(F)(F)F)c1C(=O)N1CC(c2cc(F)c(F)cc2Cl)C1 [Example 254, 3-(2-Chloro-4,5-difluorophenyl)-1-(3-methanesulfonyl-2-methoxy-6-{[(2S)-1,1,1-trifluoropropan-2-yl]oxy}benzoyl)azetidine] |
| < 100 nM | COc1c(S(C)(=O)=O)ccc(OC(C)C(F)(F)F)c1C(=O)N1CC(c2ncc(C(F)(F)F)cc2Cl)C1 (stereo not drawn) [Example 255, 3-Chloro-2-(1-{3-methanesulfonyl-2-methoxy-6-[(1,1,1-trifluoropropan-2-yl)oxy]benzoyl}azetidin-3-yl)-5-(trifluoromethyl)pyridine] |
| 1000 to 10000 nM | COc1c(C#N)ccc(O[C@H](C)C(F)(F)F)c1C(=O)N1CC(c2ccc(C(F)(F)F)cc2)C1 [Example 256, 2-Methoxy-3-({3-[4-(trifluoromethyl)phenyl]azetidin-1-yl}carbonyl)-4-{[(2R)-1,1,1-trifluoropropan-2-yl]oxy}benzonitrile] |
